Results reported in US7192614B2, “Compositions and methods of treatment to alleviate or prevent migrainous headaches and their associated symptoms” (GelStat Corporation, priority 2002, dated 2007).

Assays:
[1] = test system: migraine headache; assay: Individual case reports, acute sublingual treatment of migraine headache (Examples 1-8, 10); format: in vivo, human; conditions: single subject
Procedure: A person in otherwise good health had suffered for years with consistently recurring migraine headaches, frequency approximately 1–3 times per month, average duration 4–12 hours, which headaches had proven refractory to standard pharmacological treatment. These migraine headaches were often accompanied by nausea, and infrequently by vomiting. Each occurrence of migraine headache rendered the individual unable to participate in the normal activities of daily living, both socially and professionally. Absenteeism from work and missed social engagements resulted from their frequent need to ensconce themself in a darkened, quiet room where they would ‘wait out’ the headache. The frequency and unpredictability of the migraine headaches caused substantial impairment even between events, this impairment associated with anxiety and the inability to plan any event with confidence. This individual used the present invention in a two (2) part sublingual administration regimen, wherein a first composition is administered sublingually, and allowed to reside under the tongue for a period of about sixty (60) seconds. A second identical composition is administered, following the start of administration of the first composition by approximately five (5) minutes. […]

[2] = test system: migraine; conditions: cited from earlier work
[3] = 5 mg, placebo-controlled 2-attack study
[4] = doses > or = 2.5 mg, Rapoport 1997

CNS(=O)(=O)Cc1ccc2[nH]cc(CCN(C)C)c2c1 [Sumatriptan]
subject-reported side effects [1]: “weakness” and “exhaustion”
subject-reported relief of migraine headache and associated symptoms ([1]; two part sublingual regimen): moderate success
1 Hour headache response ([2]; Table 2, literature values): 20%
2 Hour complete headache response ([2]; Table 2, literature values): 36%
2 Hour headache response ([2]; Table 2, literature values): 59%
2 hour pain free ([2]; Table 2, literature values): 29%

CN(C)CCc1c[nH]c2ccc(C[C@H]3COC(=O)N3)cc12 [Zolmitriptan]
pain free at 2 hours postdose ([2]; 5 mg): 31.1 % of attacks
pain-free response at 1 hour postdose ([2]; 5 mg): 10.6 % of attacks
sustained pain-free response at 24 hours ([2]; 5 mg): ^9Among attacks treated with ZOMIG-ZMT 5 mg, a sustained pain-free response at 24 hours was achieved in 22.2% of attacks compared to 8.2% for placebo (P < .0001)^1 also unpublished data, see same web address as for #5
headache response at 30 minutes [2, 3]: 16.5 % of attacks
headache response at 2 hours [2, 3]: 59 % of attacks
1 Hour headache response ([2]; Table 2, literature values): 44%^1
2 Hour complete headache response ([2]; Table 2, literature values): 40–45%^6,7
2 Hour headache response ([2]; Table 2, literature values): 66%^2,3,4
2 hour pain free ([2]; Table 2, literature values): 27–33%^8
2 hour sustained pain free ([2]; Table 2, literature values): 31%^9
headache response rate at 1 hour [2, 4]: 44 to 51%
headache response rate at 2 hours [2, 4]: 65 to 67%
